Laboratory results: US9920037B2, “Diaryl isoxazoline compound” (Elanco Tiergesundheit AG, priority 2014, dated 2018)

Experiments:
[1] = tested on: Rhipicephalus sanguineus nymphs; test: Activity in vivo against Rhipicephalus sanguineus nymphs on Mongolian gerbils (spray application); conditions: 1.0 mg/kg animal biomass, Mongolian gerbils (Meriones unguiculatus)
Protocol: On day 0, gerbils are treated with the respective test compound at a given dose by spray application. On day +1 (+2), the animals are infested with nymphs of R. sanguineus. Ticks are left on the animals until full repletion. Seven days after infestation nymphs dropped off fully engorged are collected and counted. Efficacy in killing is expressed as a tick number reduction in comparison with a placebo treated group, using the Abbot's formula.

[2] = tested on: adult R. sanguineus ticks; test: Activity in vivo against Rhipicephalus sanguineus ticks (dog tick) on rabbits; conditions: spray application on ears; for threshold concentration where the efficacy drops below 90%: rabbits
Protocol: On day 0, rabbits are treated with the test compound at a given dose by spray application on their ears only. On day +1, the animals are infested on their ears with adult R. sanguineus ticks (sex ratio 1:1). Evaluation of efficacy is performed 24 h, 48 h, and 72 h after infestation by counting the numbers of dead and live ticks recovered from the animals. Efficacy is expressed as comparison with a placebo treated group using the Abbot's formula. Infestations can be repeated at weekly intervals until efficacy drops. The racemic compound of formula (I) according to the present invention and the racemic compound No. 1.48 according to WO2010/070068, page 47 were tested at different concentrations in order to determine the threshold concentration where the efficacy drops below 90%.

[3] = tested on: Lepeophtheirus salmonis copepodids; test: Activity in vitro against Lepeophtheirus salmonis at copepodid stage; format: cell-based; conditions: 0.16 ng/ml sea water; 1 hour contact, then 48 h in untreated sea water
Protocol: Sea lice copepodids were used to seed a 96-well plate containing the test substances to be evaluated for antiparasitic activity. The racemic compound of formula (I) according to the present invention and the racemic compound No. 1.48 according to WO2010/070068, page 47 were tested by serial dilution in order to determine its minimal effective dose (MED). Copepodids were left in contact with each test compound diluted in sea water for 1 hour. They were then incubated in untreated sea water for 48 h. Efficacy against sea lice was then confirmed if no copepodid moved over a period of 80 seconds.

[4] = tested on: sea lice Lepeophtheirus salmonis; test: Activity in vivo against copepodids (Lepeophtheirus salmonis) on Atlantic salmon, medicated feed; conditions: Atlantic salmon (Salmo salar L.), medicated feed 1 mg/kg/day for 7 consecutive days; counted 10 days after treatment end
Protocol: The study used two groups of 45 Atlantic salmon (Salmo salar L.), each, with an average weight of 400 g per fish. Fish were challenged with sea lice copepodids Lepeophtheirus salmonis) (Cohort I). When cohort I reached pre-adult stage, all fish were challenged with a second cohort of sea lice copepodids (Cohort II).
Treatment was initiated when sea lice in cohort I became pre-adult/adults and sea lice in cohort II were early chalimus stages:
One group was treated with medicated feed-pellet containing the (S)-enantiomer of the compound of formula (I) at 1 mg/kg/day, during 7 consecutive days. One group was a placebo control group. The medicated pellets were prepared by dry coating commercially available fish feed pellets with a pre-mix containing the (S)-enantiomer of the compound of formula (I) to reach a content of 0.02% (w/w) active ingredient in the fish feed.
Sea lice were counted 10 days after treatment end.

SMILES	efficacy (tick number reduction vs placebo, Abbot's formula) [1] [%]	efficacy (vs placebo, Abbot's formula) ([2]; 15 mg/m^2, rabbits) [%]	threshold concentration where the efficacy drops below 90% [2] [mg/m^2]	efficacy (no copepodid moved over 80 seconds) [3] [%]	efficacy (sea lice count) [4] [%]	efficacy (vs placebo, Abbot's formula) ([2]; 3 mg/m^2, rabbits) [%]	efficacy (vs placebo, Abbot's formula) ([2]; 7.5 mg/m^2, rabbits) [%]
C#CCNC(=O)CNC(=O)c1sc(C2=NOC(c3cc(Cl)cc(Cl)c3)(C(F)(F)F)C2)cc1C (racemic) [racemic compound No. 1.48, reference compound]	77	82	15	0			
C#CCNC(=O)CNC(=O)c1sc(C2=NO[C@@](c3cc(Cl)c(Cl)c(Cl)c3)(C(F)(F)F)C2)cc1C [(S)-enantiomer of the compound of formula (I)]					100		
C#CCNC(=O)CNC(=O)c1sc(C2=NOC(c3cc(Cl)c(Cl)c(Cl)c3)(C(F)(F)F)C2)cc1C (racemic) [racemic compound of formula (I)]	87		3	100		73	93
